According to patent publication US20140364422A1, “Aqueous Pharmaceutical Composition With Enhanced Stability” (NOVARTIS AG, priority 2012, published 2014):

How the values were obtained:
[1] = Solubility/clarity and freeze-thaw of 1.0% olopatadine in native guar with HPCD (Table 4-1); assay type: physicochemical; conditions: 0.17% native guar, approximately 5% or more HPCD, physiologic pH of approximately 7
Protocol: (§1) Various concentrations of HPCD were used in the formulations. The formulations were filled in glass scintillation vials and in LDPE Drop-Tainers. The formulations were evaluated for clarity using UV light.

[2] = Solubility/clarity and freeze-thaw of 0.5% and 1.0% olopatadine in native guar with HPCD (Table 5-1); assay type: physicochemical; conditions: physiologic pH of 7; for Olopatadine solubility: 0.17% native guar
Protocol: as §1
Formulation Compositions Containing 0.5% and 1.0% Olopatadine in 0.17% Native Guar and 1% to 6% Hydroxypropyl-Beta-Cyclodextrin (HPCD).

[3] = tested on: late phase allergy symptoms; experiment: Efficacy of olopatadine aqueous ophthalmic solutions in reducing late phase allergy symptoms; assay type: in vivo
Description: Olopatadine is a known compound that can be obtained by the methods disclosed in U.S. Pat. No. 5,116,863, the entire contents of which are hereby incorporated by reference in the present specification for all purposes. Olopatadine is an antihistamine (as well as anticholinergic) and mast cell stabilizer. Olopatadine is a selective histamine H1 antagonist. When included, the composition of the present invention contains at least 0.1%, more typically at least 0.33% or 0.55%, even more typically at least 0.65% or 0.67%, still more typically at least 0.7%, but typically no greater than 1.5% more typically no greater than 1.0%, still more typically no greater than 0.8%, possibly no greater than 0.75% and even possibly no greater than 0.72% or 0.6% of olopatadine where concentrations of olopatadine typically represent concentrations of olopatadine in free base form if the olopatadine is added to the composition as a salt. […] Advantageously, for the composition of the present invention, lower concentrations (e.g., at least 0.50 w/v %, at least 0.55 w/v %, or at least 0.60 w/v %) may show significant improvements and even possibly statistically significant improvements in reducing late phase allergy symptoms.

SMILES: CN(C)CC/C=C1/c2ccccc2COc2ccc(CC(=O)O)cc21 [Olopatadine, (Z)-11-(3-dimethylaminopropylidene)-6,11-dihydro-dibenz-[b,e]oxepin-2-acetic acid]
- Olopatadine concentration solubilized [1]: 1%
- Olopatadine solubility ([2]; HPCD at or above approximately 2%): 0.5%
- Olopatadine solubility ([2]; HPCD at or above approximately 4%): 1%
- concentration of cyclodextrin that can solubilize Olopatadine ([2]; 0.5% Olopatadine together with 0.17% guar): approximately 2%
- concentration of cyclodextrin that can solubilize Olopatadine ([2]; 0.6% Olopatadine together with 0.17% guar): ~4%
- olopatadine concentration at which efficacy in reducing late phase allergy symptoms begins to show improvement [3]: greater than 0.5 w/v %
- olopatadine concentration at which statistically significant improvements in reducing late phase allergy symptoms begin ([3]; about 0.7 w/v % and above): at least 0.7 w/v %
